A short description of series [1]: Ionization constant, pKa2 of the compound at 1 mM by potentiometric titration assay. The format is physicochemical.
Series [2] concerns the target Sodium- and chloride-dependent GABA transporter 1 (Homo sapiens, UniProt P30531). The series is classed as cell-based.
Series [3] addresses T1, Gamma-aminobutyric acid receptor subunit alpha-5/beta-2/gamma-2 (Homo sapiens, UniProt P18507+P31644+P47870).
T1 sequence (P47870 whole entry): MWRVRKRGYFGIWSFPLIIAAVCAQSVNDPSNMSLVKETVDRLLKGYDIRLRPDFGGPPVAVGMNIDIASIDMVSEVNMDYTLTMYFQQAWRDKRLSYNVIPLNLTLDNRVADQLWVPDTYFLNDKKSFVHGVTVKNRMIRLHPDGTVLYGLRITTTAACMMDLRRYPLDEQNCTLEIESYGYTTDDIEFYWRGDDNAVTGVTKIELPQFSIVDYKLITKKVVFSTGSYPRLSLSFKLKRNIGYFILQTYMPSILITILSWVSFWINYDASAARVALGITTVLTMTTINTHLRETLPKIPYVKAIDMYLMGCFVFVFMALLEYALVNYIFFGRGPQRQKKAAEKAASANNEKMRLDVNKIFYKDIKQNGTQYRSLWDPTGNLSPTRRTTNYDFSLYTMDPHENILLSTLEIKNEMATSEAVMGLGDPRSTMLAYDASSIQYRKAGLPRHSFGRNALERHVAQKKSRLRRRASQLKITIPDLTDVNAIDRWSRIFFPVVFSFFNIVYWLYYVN
T1 sequence (P18507 whole entry): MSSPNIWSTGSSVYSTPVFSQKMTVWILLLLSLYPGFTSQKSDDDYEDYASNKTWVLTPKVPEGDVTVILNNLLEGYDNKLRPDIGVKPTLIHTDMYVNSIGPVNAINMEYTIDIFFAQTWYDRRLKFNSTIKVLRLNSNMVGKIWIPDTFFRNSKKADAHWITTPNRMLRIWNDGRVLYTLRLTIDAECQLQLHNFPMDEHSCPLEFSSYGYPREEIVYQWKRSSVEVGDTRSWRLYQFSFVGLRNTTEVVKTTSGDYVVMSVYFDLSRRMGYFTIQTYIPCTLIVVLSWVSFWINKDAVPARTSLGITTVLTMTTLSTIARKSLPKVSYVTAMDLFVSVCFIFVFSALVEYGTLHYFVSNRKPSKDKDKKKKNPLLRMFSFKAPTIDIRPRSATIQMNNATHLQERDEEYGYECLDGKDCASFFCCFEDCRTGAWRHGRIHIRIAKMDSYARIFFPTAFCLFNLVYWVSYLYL
T1 sequence (P31644 whole entry): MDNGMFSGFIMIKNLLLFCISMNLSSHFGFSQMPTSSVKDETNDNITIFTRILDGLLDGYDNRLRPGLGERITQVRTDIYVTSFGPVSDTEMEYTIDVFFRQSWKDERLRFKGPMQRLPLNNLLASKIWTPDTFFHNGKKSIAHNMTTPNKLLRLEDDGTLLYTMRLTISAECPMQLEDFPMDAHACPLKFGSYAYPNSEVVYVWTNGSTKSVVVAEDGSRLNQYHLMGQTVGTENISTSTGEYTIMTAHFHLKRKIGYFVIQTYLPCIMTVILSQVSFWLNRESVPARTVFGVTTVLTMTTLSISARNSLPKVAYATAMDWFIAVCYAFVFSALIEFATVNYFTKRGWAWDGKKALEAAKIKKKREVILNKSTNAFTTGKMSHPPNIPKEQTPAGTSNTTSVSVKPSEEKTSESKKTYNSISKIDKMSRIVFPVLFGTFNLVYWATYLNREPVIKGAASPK
Briefly: Agonist activity at recombinant human GABA-A alpha5beta2gamma2S receptor transiently expressed in human tsA201 cells incubated for 30 mins and measured up to 90 secs by FMP dye based FLIPR membrane potential blue assay. The series is classed as cell-based.

The target in series [4] is Gamma-aminobutyric acid receptor subunit alpha-4/beta-2/gamma-2 (Homo sapiens, UniProt P18507+P47870+P48169). In words: Agonist activity at recombinant human GABA-A alpha4beta2gamma2S receptor transiently expressed in human tsA201 cells incubated for 30 mins and measured up to 90 secs by FMP dye based FLIPR membrane potential blue assay. The series is classed as cell-based. The conditions noted are these: read-out: EC50.

Series [5] addresses T2, GABA-A receptor; alpha-1/beta-2/gamma-2 (Homo sapiens) (UniProt P14867+P47870+P18507). In words: Agonist activity at recombinant human GABA-A alpha1beta2gamma2S receptor transiently expressed in human tsA201 cells assessed as GABA-induced maximum response incubated for 30 mins and measured up to 90 secs by FMP dye based FLIPR membrane potential blue assay relative to GABA. The series is classed as cell-based.

The target in series [6] is T3, Gamma-aminobutyric acid receptor subunit alpha-4/beta-2/gamma-2 (Homo sapiens, UniProt P47870+P18507+P48169). Briefly: Agonist activity at recombinant human GABA-A alpha4beta2gamma2S receptor transiently expressed in human tsA201 cells assessed as GABA-induced maximum response incubated for 30 mins and measured up to 90 secs by FMP dye based FLIPR membrane potential blue assay relative to GABA. The format is cell-based.

The target in series [7] is GABA-A receptor; anion channel. In words: Displacement of [3H]muscimol from GABA(A) receptor in Sprague-Dawley rat cortical synaptic membranes by liquid scintillation counting.
For series [8], the target named is Gamma-aminobutyric acid receptor subunit rho-1 (Homo sapiens, UniProt P24046). In words: Antagonist activity at recombinant human GABA-A rho-1 receptor transiently expressed in human tsA201 cells incubated for 30 mins and measured up to 90 secs by FMP dye based FLIPR membrane potential blue assay. The format is cell-based.
Series [9] addresses T3, Gamma-aminobutyric acid receptor subunit alpha-4/beta-2/gamma-2. Briefly: Agonist activity at recombinant human GABA-A alpha4beta2gamma2S receptor transiently expressed in human tsA201 cells at >= 300 uM incubated for 30 mins and measured up to 90 secs by FMP dye based FLIPR membrane potential blue assay. The format is cell-based.
The target in series [10] is T4, GABA-A receptor; alpha-1/beta-2/gamma-2 (Homo sapiens, UniProt P14867+P47870+P18507).
T4 sequence (P14867 whole entry): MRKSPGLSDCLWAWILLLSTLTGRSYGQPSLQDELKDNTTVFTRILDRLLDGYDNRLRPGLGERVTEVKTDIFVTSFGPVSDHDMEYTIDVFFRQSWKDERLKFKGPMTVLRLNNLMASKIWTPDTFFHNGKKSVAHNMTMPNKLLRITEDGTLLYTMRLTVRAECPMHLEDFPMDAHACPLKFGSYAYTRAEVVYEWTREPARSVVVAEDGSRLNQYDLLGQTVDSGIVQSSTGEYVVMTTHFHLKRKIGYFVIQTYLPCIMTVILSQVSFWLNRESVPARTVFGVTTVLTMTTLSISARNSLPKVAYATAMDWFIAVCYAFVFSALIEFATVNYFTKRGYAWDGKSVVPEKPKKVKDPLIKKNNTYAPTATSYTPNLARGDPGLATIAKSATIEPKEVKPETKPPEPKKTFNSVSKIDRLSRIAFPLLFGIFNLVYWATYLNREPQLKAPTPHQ
T4 sequence (P47870 whole entry): T1 sequence (P47870 whole entry)
T4 sequence (P18507 whole entry): T1 sequence (P18507 whole entry)
In words: (§1) Agonist activity at recombinant human GABA-A alpha1beta2gamma2S receptor transiently expressed in human tsA201 cells incubated for 30 mins and measured up to 90 secs by FMP dye based FLIPR membrane potential blue assay. The format is cell-based.

The target in series [11] is T2, GABA-A receptor; alpha-1/beta-2/gamma-2 (Homo sapiens). The description is as §1. The format is cell-based.

Calls of active or inactive are those of the source. The rule behind the calls is not given here.

Sodium- and chloride-dependent GABA transporter 1, sequence (P30531 whole entry): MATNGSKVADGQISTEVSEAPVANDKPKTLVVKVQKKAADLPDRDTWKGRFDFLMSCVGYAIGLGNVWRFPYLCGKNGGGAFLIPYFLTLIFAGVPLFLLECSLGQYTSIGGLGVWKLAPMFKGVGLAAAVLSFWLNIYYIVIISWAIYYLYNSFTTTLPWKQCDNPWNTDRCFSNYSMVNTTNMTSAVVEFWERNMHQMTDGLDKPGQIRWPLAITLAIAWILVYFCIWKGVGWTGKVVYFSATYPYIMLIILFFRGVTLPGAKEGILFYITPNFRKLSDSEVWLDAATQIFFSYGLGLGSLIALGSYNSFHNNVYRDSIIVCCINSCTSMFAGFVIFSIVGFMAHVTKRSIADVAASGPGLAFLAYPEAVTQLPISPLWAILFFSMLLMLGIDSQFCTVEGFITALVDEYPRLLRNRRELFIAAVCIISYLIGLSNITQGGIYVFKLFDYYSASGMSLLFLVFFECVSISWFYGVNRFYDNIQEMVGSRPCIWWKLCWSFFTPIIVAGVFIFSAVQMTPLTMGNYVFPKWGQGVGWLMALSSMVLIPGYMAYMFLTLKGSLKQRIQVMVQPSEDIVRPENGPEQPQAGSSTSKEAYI
Gamma-aminobutyric acid receptor subunit alpha-4/beta-2/gamma-2 (Homo sapiens, UniProt P18507+P47870+P48169), sequence (P48169 whole entry, one chain of several): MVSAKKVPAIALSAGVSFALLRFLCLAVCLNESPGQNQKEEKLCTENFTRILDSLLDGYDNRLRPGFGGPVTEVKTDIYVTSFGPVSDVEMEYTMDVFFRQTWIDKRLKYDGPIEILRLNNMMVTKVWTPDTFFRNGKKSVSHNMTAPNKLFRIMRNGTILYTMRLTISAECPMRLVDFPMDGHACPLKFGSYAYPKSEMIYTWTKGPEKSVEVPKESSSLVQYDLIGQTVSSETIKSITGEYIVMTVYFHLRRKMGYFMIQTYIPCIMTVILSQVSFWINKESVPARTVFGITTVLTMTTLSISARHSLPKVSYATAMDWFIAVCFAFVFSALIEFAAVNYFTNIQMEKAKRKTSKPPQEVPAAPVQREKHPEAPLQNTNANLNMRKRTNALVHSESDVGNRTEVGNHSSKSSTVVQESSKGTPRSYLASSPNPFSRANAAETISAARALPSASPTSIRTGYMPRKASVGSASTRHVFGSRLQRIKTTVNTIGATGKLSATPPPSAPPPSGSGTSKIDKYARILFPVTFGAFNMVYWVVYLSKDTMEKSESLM
Gamma-aminobutyric acid receptor subunit rho-1, sequence (P24046 whole entry): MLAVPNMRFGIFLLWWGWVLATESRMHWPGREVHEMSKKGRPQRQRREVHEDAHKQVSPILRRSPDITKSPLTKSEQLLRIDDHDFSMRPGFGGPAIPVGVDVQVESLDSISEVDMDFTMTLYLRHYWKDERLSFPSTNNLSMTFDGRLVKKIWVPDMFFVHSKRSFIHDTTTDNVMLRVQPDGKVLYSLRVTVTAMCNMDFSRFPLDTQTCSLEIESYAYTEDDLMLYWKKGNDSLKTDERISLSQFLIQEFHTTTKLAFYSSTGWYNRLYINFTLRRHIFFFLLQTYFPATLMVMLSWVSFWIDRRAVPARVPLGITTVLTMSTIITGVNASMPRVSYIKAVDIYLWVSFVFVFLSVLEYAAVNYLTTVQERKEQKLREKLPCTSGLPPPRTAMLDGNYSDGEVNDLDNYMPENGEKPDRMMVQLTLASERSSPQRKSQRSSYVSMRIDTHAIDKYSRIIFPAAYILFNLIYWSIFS

For the compound `NC1=NC(CC(=O)O)CS1` (centres undefined), the pKa at 1000 µM in series [1] was determined as 8.62. The IC50 in series [2] (read-out: IC50) is 179 µM; in series [2] (read-out: pIC50 (converted)), 158 µM. Moreover, the concentration for a half-maximal effect (EC50) in [3] stood at 220 nM; in series [4], 1.3 µM. The Rmax was 86% in series [5] and 93% in series [6]. In [7], this compound displayed an inhibitory constant (Ki) of 110 nM.
For the compound `O=C(O)C[C@H]1CCNC1`, the IC50 in [2] (read-out: IC50) was 3.6 µM; in [2] (read-out: pIC50 (converted)), 2.51 µM. Besides, the values for the EC50 in [3] and in [4] were 940 nM and 8.1 µM, respectively. The results for the Rmax in series [5] and in series [6] were 93% and 94%, respectively. In series [7], this compound had an inhibition constant Ki of 210 nM.
Regarding `CC(C(=O)O)C1CSC(N)=N1` (stereo in doubt; l-10a), the IC50 in [2] (read-out: IC50) is more than 100 µM. The EC50 in [3] worked out at 2700 nM; in series [4] it was 26 µM. Moreover, in series [7], the Ki came out at 330 nM.
With `C[C@@H](C(=O)O)[C@H]1CSC(N)=N1` (relative stereo), the IC50 is more than 100 µM in [2] (read-out: IC50) and 300 µM in [8]. For the same compound, the concentration giving a half-maximal response (EC50) in [3] is 2600 nM. Moreover, the Rmax in series [5] came to 59%. In addition, the Rmax result in [6] is “inactive”. Moreover, the Ki in series [7] was found to be 1600 nM.
In the case of `C[C@@H]1SC(N)=N[C@@H]1CC(=O)O` (relative stereo), the IC50 in series [2] (read-out: IC50) was more than 100 µM; in series [8], 100 µM. Besides, in series [9], the outcome was Active. The concentration for a half-maximal effect (EC50) entry is “Not Active” in [10] and 8200 nM in series [3]. In addition, in series [11], the pEC50 entry was “inactive”. The Rmax entry in [5] and in series [6] was “inactive” throughout. Also, affinity in series [7] was put at a Ki of 5500 nM.
`C[C@H]1SC(N)=N[C@@H]1CC(=O)O` (relative stereo): the IC50 in series [2] (read-out: IC50) is more than 100 µM. For the same compound, the outcome in [9] was Active. For the same compound, the EC50 entry is “Not Active” in series [10] and 17000 nM in series [3]. The pEC50 entry (in series [11]; in the series filed under Homo sapiens) was “inactive” in each case. For the same compound, the Rmax result in [5] and in [6] was “inactive” each time. Affinity in series [7] was put at a Ki of 12000 nM. Also, the negative logarithm of the Ki (pKi) in series [7] is on record as 4.96.
Consider `O=C(O)CC1CNC=N1` (centres undefined), for which, in series [1], the pKa at 1000 µM came to 9.63. Besides, the IC50 in series [2] (read-out: IC50) is 71.4 µM. Further, the values for the EC50 in series [3] and in series [4] were 790 nM and 7.9 µM, respectively. For the same compound, the Rmax in series [5] was found to be 1%; in series [6] it was 74%. In series [7], this compound showed a Ki of 90 nM.
Regarding `O=C(O)C[C@@H]1CCNC1`, the IC50 was 3.9 µM in series [2] (read-out: IC50) and 3.16 µM in series [2] (read-out: pIC50 (converted)). In [9], the result was Active. Moreover, the EC50 entry was “Not Active” in series [10] and 24000 nM in series [3]. Besides, the pEC50 entry (in series [11]; in the series listed under Homo sapiens) was “inactive” each time. Further, the Rmax result in [5] and in series [6] was “inactive” each time. The compound also showed a Ki in series [7] of 5600 nM.
With `CC(C(=O)O)C1CSC(N)=N1` (stereo in doubt; l-10b), the IC50 in series [2] (read-out: IC50) was more than 100 µM. Besides, the EC50 entry in [10] is listed as “Not Active”. The concentration giving a half-maximal response (EC50) in series [3] is 11000 nM. Further, in [7], the Ki was found to be 1300 nM and the pKi was determined as 5.91.
Compound `NC1=NC(CC(=O)O)CN1` (centres undefined) displayed a pKa at 1000 µM in [1] of 10.1. Besides, the IC50 in [2] (read-out: IC50) worked out at 96.9 µM. The concentration giving a half-maximal response (EC50) came out at 1600 nM in series [3] and 14 µM in [4]. Also, the Rmax in series [5] and in [6] was 81% in each case. The compound further registered a Ki in [7] of 450 nM. The pKi in series [7] came to 6.37.
As to `C[C@@H](C(=O)O)[C@@H]1CSC(N)=N1` (relative stereo), the IC50 in series [2] (read-out: IC50) is more than 100 µM. Also, in series [3], the concentration for a half-maximal effect (EC50) turned out to be 3000 nM. Moreover, in series [5], the Rmax is 22%. In series [6], the Rmax entry was “inactive”. Further, the Ki in series [7] was found to be 290 nM.

Source of the values: ChEMBL document CHEMBL4396887, “Five-Membered N-Heterocyclic Scaffolds as Novel Amino Bioisosteres at γ-Aminobutyric Acid (GABA) Type A Receptors and GABA Transporters” (J Med Chem, 2019).
